From PubChem BioAssay AID328 (DTP/NCI, 2004)
Where “and” joins values, the source holds several entries; their conditions need not be identical. Equal entries are not always repeated. Toxic doses and inconclusive results are not listed. How the source made its calls: active means survival T/C of 150% or more; inactive means T/C below 125% in these data.

Tested on: BDF1 mice, P388 leukemia ip, median survival T/C
Experiment: NCI In Vivo Anticancer Drug Screen. Data for tumor model P388 Leukemia (intraperitoneal) in B6D2F1 (BDF1) mice
Conditions: endpoint: median survival time, higher = longer survival
Description: The antitumor activity of compounds was measured in mice bearing transplantable tumors. Survival or tumor size were measured and the results are expressed as the measurement made in the treated group (T) divided by the measurement made in the vehicle treated control group (C). The tumor model used in this assay is P388 Leukemia (intraperitoneal) in B6D2F1 (BDF1) mice

[1] = dose: 100.0 mg/kg/injection, schedule: Q01DX009 (ip), vehicle: other
[2] = dose: 200.0 mg/kg/injection, schedule: Q01DX009 (ip), vehicle: other
[3] = dose: 100.0 mg/kg/injection, schedule: Q04DX003 (ip), vehicle: saline with Tween-80
[4] = dose: 200.0 mg/kg/injection, schedule: Q04DX003 (ip), vehicle: saline with Tween-80
[5] = dose: 400.0 mg/kg/injection, schedule: Q04DX003 (ip), vehicle: saline with Tween-80
[6] = dose: 50.0 mg/kg/injection, schedule: Q04DX003 (ip), vehicle: saline with Tween-80
[7] = dose: 100.0 mg/kg/injection, schedule: Q01DX009 (ip), vehicle: Klucel (hydroxypropylcellulose) (HPC)
[8] = dose: 200.0 mg/kg/injection, schedule: Q01DX009 (ip), vehicle: Klucel (hydroxypropylcellulose) (HPC)
[9] = dose: 50.0 mg/kg/injection, schedule: Q01DX009 (ip), vehicle: saline with Tween-80
[10] = dose: 100.0 mg/kg/injection, schedule: Q01DX009 (ip), vehicle: saline with Tween-80
[11] = dose: 200.0 mg/kg/injection, schedule: Q01DX009 (ip), vehicle: saline with Tween-80
[12] = dose: 100.0 mg/kg/injection, schedule: Q04DX003 (ip), vehicle: Klucel (hydroxypropylcellulose) (HPC)
[13] = dose: 200.0 mg/kg/injection, schedule: Q04DX003 (ip), vehicle: Klucel (hydroxypropylcellulose) (HPC)
[14] = dose: 400.0 mg/kg/injection, schedule: Q01DX009 (ip), vehicle: Klucel (hydroxypropylcellulose) (HPC)
[15] = dose: 400.0 mg/kg/injection, schedule: Q04DX003 (ip), vehicle: Klucel (hydroxypropylcellulose) (HPC)

Measured: T/C

CCCCCCCCCCCCOc1ccc(C=O)cc1OC
inactive: dose: 100.0 mg/kg/injection, schedule: Q01DX001 (ip), vehicle: Klucel (hydroxypropylcellulose) (HPC) 100 % of control | dose: 200.0 mg/kg/injection, schedule: Q01DX001 (ip), vehicle: Klucel (hydroxypropylcellulose) (HPC) 90 % of control | dose: 400.0 mg/kg/injection, schedule: Q01DX001 (ip), vehicle: Klucel (hydroxypropylcellulose) (HPC) 100 % of control

CC1(C)CN(C(C)(C)C)CC(C)(C)C(=O)C1=O
inactive: dose: 12.5 mg/kg/injection, schedule: Q04DX003 (ip), vehicle: saline 90 % of control | dose: 25.0 mg/kg/injection, schedule: Q04DX003 (ip), vehicle: saline 95 % of control | dose: 50.0 mg/kg/injection, schedule: Q04DX003 (ip), vehicle: saline 95 % of control

CN1C(=O)NC2C(CO)OC1C2O (stereo not drawn)
inactive: dose: 100.0 mg/kg/injection, schedule: Q01DX001 (ip), vehicle: saline 104 % of control | dose: 200.0 mg/kg/injection, schedule: Q01DX001 (ip), vehicle: saline 104 % of control | dose: 400.0 mg/kg/injection, schedule: Q01DX001 (ip), vehicle: saline 100 % of control

COC(=O)c1cc(=O)nc(N/N=C/c2ccco2)s1
inactive: dose: 50.0 mg/kg/injection, schedule: Q01DX005 (ip), vehicle: saline with Tween-80 94 % of control | dose: 100.0 mg/kg/injection, schedule: Q01DX005 (ip), vehicle: saline with Tween-80 89 % of control | dose: 200.0 mg/kg/injection, schedule: Q01DX005 (ip), vehicle: saline with Tween-80 87 % of control

CN(C)c1ccc(/C=C/C2CC[N-]C3C(O)CCCC23)cc1.CN(C)c1ccc(/C=C/C2CC[N-]C3C(O)CCCC23)cc1.CN(C)c1ccc(/C=C/C2CC[N-]C3C(O)CCCC23)cc1.[Fe+3] (stereo not drawn)
inactive: dose: 100.0 mg/kg/injection, schedule: Q04DX002 (ip), vehicle: saline with Tween-80 110 % of control | dose: 200.0 mg/kg/injection, schedule: Q04DX002 (ip), vehicle: saline with Tween-80 122 % of control

Cc1cc(C)c(C(=O)CC(=O)c2cccnc2)c(C)c1
inactive: [1] 115 % of control | dose: 100.0 mg/kg/injection, schedule: Q04DX003 (ip), vehicle: other 100 % of control | [2] 120 % of control | dose: 200.0 mg/kg/injection, schedule: Q04DX003 (ip), vehicle: other 100 % of control | dose: 400.0 mg/kg/injection, schedule: Q01DX009 (ip), vehicle: other 110 % of control | dose: 400.0 mg/kg/injection, schedule: Q04DX003 (ip), vehicle: other 100 % of control

Cc1ncc([N+](=O)[O-])n1CCOc1c(Br)cc(Br)cc1CN(C)C1CCCCC1
inactive: [3] 100 % of control | [4] 105 % of control | [5] 115 % of control

CC1(C)OCC2OC3(C(=O)O)OC(C)(C)OC3C2O1 (stereo not drawn)
inactive: dose: 25.0 mg/kg/injection, schedule: Q01DX009 (ip), vehicle: water 100 % of control | dose: 50.0 mg/kg/injection, schedule: Q01DX009 (ip), vehicle: water 96 % of control | dose: 100.0 mg/kg/injection, schedule: Q01DX009 (ip), vehicle: water 101 % of control | dose: 200.0 mg/kg/injection, schedule: Q01DX009 (ip), vehicle: water 99 % of control | dose: 400.0 mg/kg/injection, schedule: Q01DX009 (ip), vehicle: water 101 % of control

CC(C)=NNC(=O)c1ccccc1
inactive: dose: 25.0 mg/kg/injection, schedule: Q01DX009 (ip), vehicle: saline 104 % of control | dose: 25.0 mg/kg/injection, schedule: Q04DX003 (ip), vehicle: saline with Tween-80 95 % of control | dose: 50.0 mg/kg/injection, schedule: Q01DX009 (ip), vehicle: saline 109 % of control | [6] 95 % of control | [3] 100 % of control and 113 % of control

O=C(NC(CSC(=O)c1ccccc1)C(=O)O)OCc1ccccc1 (stereo not drawn)
inactive: dose: 50.0 mg/kg/injection, schedule: Q01DX009 (ip), vehicle: Klucel (hydroxypropylcellulose) (HPC) 95 % of control | [7] 95 % of control | [8] 100 % of control

Cc1cc2c(c3ncccc13)OCN(Cc1ccc(Cl)c(Cl)c1)C2
inactive: dose: 12.5 mg/kg/injection, schedule: Q01DX009 (ip), vehicle: saline with Tween-80 113 % of control | dose: 25.0 mg/kg/injection, schedule: Q01DX009 (ip), vehicle: saline with Tween-80 108 % of control | [9] 104 % of control

COC1(c2cccs2)OC1(C)C (stereo not drawn)
inactive: [10] 95 % of control | [3] 100 % of control | [11] 95 % of control | [4] 91 % of control | dose: 400.0 mg/kg/injection, schedule: Q01DX009 (ip), vehicle: saline with Tween-80 95 % of control | [5] 104 % of control

Cc1cn(C2CC(O)C(CO)O2)c(=O)[nH]c1=O (stereo not drawn)
inactive: dose: 500.0 mg/kg/injection, schedule: Q04DX003 (ip), vehicle: saline 101 % of control | dose: 750.0 mg/kg/injection, schedule: Q04DX003 (ip), vehicle: saline 111 % of control | dose: 1000.0 mg/kg/injection, schedule: Q04DX003 (ip), vehicle: saline 104 % of control

Fc1ccc(NC2=NCCN=C(Nc3ccc(F)cc3)SS2)cc1
inactive: [9] 96 % of control | [10] 87 % of control | [11] 102 % of control

COC(=O)C1(C(=O)OC)C2CC(C)=C(C)CC21 (stereo not drawn)
inactive: dose: 150.0 mg/kg/injection, schedule: Q04DX003 (ip), vehicle: saline 95 % of control | dose: 300.0 mg/kg/injection, schedule: Q04DX003 (ip), vehicle: saline 95 % of control

O=C(OC1COC(n2c(=O)oc3ccc(F)cc32)C(OC(=O)c2ccccc2)C1OC(=O)c1ccccc1)c1ccccc1 (stereo not drawn)
inactive: [7] 104 % of control | [12] 113 % of control | [8] 100 % of control | [13] 100 % of control | [14] 90 % of control | [15] 95 % of control

COc1ccc(OC)c([N+](=O)[O-])c1
inactive: [12] 100 % of control | [8] 95 % of control | [13] 95 % of control | [14] 90 % of control | [15] 100 % of control

COc1cc2cc(-c3cc(OC)c(OC)c(OC)c3)c3c(c2cc1OC)CNC3=O
inactive: dose: 100.0 mg/kg/injection, schedule: Q01DX009 (ip), vehicle: saline 110 % of control | dose: 100.0 mg/kg/injection, schedule: Q04DX003 (ip), vehicle: saline 101 % of control | dose: 200.0 mg/kg/injection, schedule: Q01DX009 (ip), vehicle: saline 112 % of control | dose: 200.0 mg/kg/injection, schedule: Q04DX003 (ip), vehicle: saline 108 % of control | dose: 400.0 mg/kg/injection, schedule: Q01DX009 (ip), vehicle: saline 91 % of control | dose: 400.0 mg/kg/injection, schedule: Q04DX003 (ip), vehicle: saline 100 % of control

Cc1c(Cl)cccc1NC(=O)Nc1cccc2ccccc12
inactive: [3] 91 % of control | [4] 100 % of control | [5] 108 % of control

Cc1ccc(C(=O)C2(c3ccc(C)cc3)OC(c3ccc(C)cc3)=C(c3ccc(C)cc3)S2)cc1 (stereo not drawn)
inactive: dose: 50.0 mg/kg/injection, schedule: Q01DX009 (ip), vehicle: other 104 % of control | [1] 100 % of control | [2] 100 % of control

O=C(COc1ccc(Cl)cc1Cl)Oc1c(Cl)c(Cl)c(Cl)c(Cl)c1Cl
inactive: [6] 91 % of control | [3] 87 % of control
